In patent publication US20230112306A1, “METHODS OF CONTROLLING OR PREVENTING INFESTATION OF SOYBEAN PLANTS BY THE PHYTOPATHOGENIC MICROORGANISM CORYNESPORA CASSIICOLA” (SYNGENTA CROP PROTECTION AG, priority 2020, published 2023):

Test system: Corynespora cassiicola
Assay: Corynespora cassiicola (target leaf spot) growth inhibition in nutrient broth, microtiter plate
Format: cell-based
Settings: PDB broth, 24° C., photometric at 620 nm after 3-4 days, vs untreated check, read-out: % control of Corynespora cassiicola (inhibition of growth)
Method: Example 1: Corynespora Cassiicola (Target Leaf Spot) Conidia of the fungus from cryogenic storage were directly mixed into nutrient broth (PDB potato dextrose broth). A DMSO solution of the test compounds was placed into a microtiter plate (96-well format) and the nutrient broth containing the fungal spores was added to it. The test plates were incubated at 24° C. and the inhibition of growth (% control of Corynespora cassiicola) was determined photometrically after 3-4 days at 620 nm. The activity of a compound is derived by comparing the inhibition of growth in the treated test solution to the growth in the untreated check. The concentration of the compounds was 6.7, 2.2, 0.74, 0.25, and 0.082 ppm.

Compound | inhibition at 0.25 ppm | inhibition at 0.74 ppm | inhibition at 2.2 ppm | inhibition at 6.7 ppm
CC1(C)N=C(c2cnc3c(F)cccc3c2)c2ccsc2C1(F)F [Ic, 7,7-Difluoro-4-(8-fluoro-3-quinolyl)-6,6-dimethyl-6,7-dihydro-1-thia-5-azaindene] | ≥ 20% | ≥ 50% | ≥ 70% | ≥ 70%
Cc1cc(C2=NC(C)(C)C(F)(F)c3ccccc32)cnc1C(F)F [la, 5-(4,4-Difluoro-3,3-dimethyl-3,4-dihydro-1-isoquinolyl)-2-(difluoromethyl)-3-methylpyridine] | ≥ 20% | ≥ 50% | ≥ 70% | ≥ 70%
